Reference: patent US20230029385A1, “2-METHYL-AZA-QUINAZOLINES” (Bayer Aktiengesellschaft, priority 2019, published 2023)

molecular target: T1, hK-RasG12C activation by hSOS1 (Homo sapiens, UniProt Q07889); test: hK-RasG12C activation assay by hSOS1 (Biochemical Assay 3, HTRF); details: mean; assay 3, loading with fluorescent GTP-analog; read-out: K-RasG12C activation by SOS IC50 - [mol/l] (mean)
T1 construct: His10-hSOS1; made in house; host or cells: E. coli BL21 (DE3)
T1 sequence (Q07889 with tags, fused parts or gaps): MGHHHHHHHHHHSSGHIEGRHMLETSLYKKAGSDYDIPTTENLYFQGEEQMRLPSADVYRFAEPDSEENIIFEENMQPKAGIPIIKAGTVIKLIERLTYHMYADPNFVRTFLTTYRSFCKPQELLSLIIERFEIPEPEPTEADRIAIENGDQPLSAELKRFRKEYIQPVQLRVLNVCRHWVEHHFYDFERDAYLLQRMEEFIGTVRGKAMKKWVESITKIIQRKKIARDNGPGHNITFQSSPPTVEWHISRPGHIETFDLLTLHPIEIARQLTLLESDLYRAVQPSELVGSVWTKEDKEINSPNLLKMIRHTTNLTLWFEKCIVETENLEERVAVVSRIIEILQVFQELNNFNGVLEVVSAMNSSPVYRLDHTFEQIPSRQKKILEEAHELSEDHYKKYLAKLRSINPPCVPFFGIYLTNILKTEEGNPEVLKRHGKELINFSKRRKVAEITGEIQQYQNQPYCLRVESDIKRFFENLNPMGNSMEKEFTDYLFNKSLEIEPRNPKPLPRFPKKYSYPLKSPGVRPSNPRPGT
Description: Biochemical Assay 3: hK-RasG12C Activation Assay by hSOS1
K-Ras is a small GTPase that can bind GDP and GTP. The guanine nucleotide exchange factor SOS1 catalyzes the activation of K-Ras by promoting the exchange of GDP to GTP. SOS1 binds to K-Ras-GDP thereby opening the GDP-binding pocket to facilitate GDP release. Rebinding of excess nucleotide leads to dissociation of the K-Ras-SOS1 intermediate complex leaving K-Ras loaded with the nucleotide.
This assay quantifies human SOS1- (hSOS1-) mediated loading of human K-Ras^G12C-GDP (hK-RasG12C-GDP) with a fluorescent GTP-analog. Detection of successful loading is achieved by measuring homogenous time-resolved fluorescence resonance energy transfer (HTRF) from antiGST-Terbium (FRET donor) bound to GST-hK-RasG12C (see below) to the loaded fluorescent GTP analog (FRET-acceptor).
The fluorescent GTP-analog EDA-GTP-Dy647P1 (2′/3′-O-(2-Aminoethyl-carbamoyl)-guanosine-5′-triphosphate labelled with Dy647P1 (Dyomics GmbH, Germany)) is synthesized by Jena Biosciences GmbH (Germany) and supplied as a 1mM aqueous solution.
(§1) The assay buffer containes 10 mM HEPES pH 7.4 (Applichem), 150 mM NaCl (Sigma), 5 mM MgCl2 (Sigma), 1 mM DTT (Thermofisher), 0.05% BSA Fraction V, pH 7.0, (ICN Biomedicals), 0.0025% (v/v) Igepal (Sigma).
The expression and purification of N-terminal GST-tagged human K-RasG12C and N-terminal His-tagged hSOS1 is described below. Concentrations of protein batches used are optimized to be within the linear range of the HTRF signal. A hRas working solution is prepared in assay buffer containing typically 100 nM GST-hK-RasG12C and 2 nM antiGST-Tb (Cisbio, France). A hSOS1 working solution is prepared in assay buffer containing typically 20nM hSOS1 and 200 nM EDA-GTP-Dy647P1. An inhibitor control solution is prepared in assay buffer containing 200 nM EDA-GTP-Dy647P1 without hSOS1.
(§2) Fifty nl of a 100-fold concentrated solution of the test compound in DMSO are transferred into a black microtiter test plate (384 or 1536, Greiner Bio-One, Germany). For this, either a Hummingbird liquid handler (Digilab, Mass., USA) or an Echo acoustic system (Labcyte, Calif., USA) is used.
(§3) All steps of the assay are performed at 20° C. A volume of 2.5 μl of the hRas working solution is added to all wells of the test plate using a Multidrop dispenser (Thermo Labsystems). After 10 min preincubation, 2.5 μl of the hSOS1 working solution are added to all wells except for those wells at the side of the test plate that are subsequently filled with 2.5 μl of the inhibitor control solution. After 30 min incubation the fluorescence is measured with a Pherastar (BMG, Germany) using the HTRF module (excitation 337 nm, emission 1: 620 nm, emission 2: 665 nm).
(§4) The ratiometric data (emission 2 divided by emission 1) are normalized using the controls (DMSO=0% inhibition, inhibition control wells with inhibitor control solution=100% inhibition). Compounds are tested in duplicates at up to 11 concentrations (for example 20 μM, 5.7 μM, 1.6 μM, 0.47 μM, 0.13 μM, 38 nM, 11 nM, 3.1 nM, 0.89 nM, 0.25 nM and 0.073 nM). IC50 values are calculated by 4-Parameter fitting using a commercial software package (Genedata Screener, Switzerland).

Q: With CC(=O)N[C@H]1CCN(c2cc3c(N[C@H](C)c4cccc(C(F)F)c4F)nc(C)nc3cn2)C1 as the compound, how does the IC50 read?
A: The IC50 was 144 nM.

Q: Which IC50 does the source give for CCOc1cc2c(N[C@H](C)c3cccc(C(F)F)c3F)nc(C)nc2cn1 here?
A: Its IC50 is 357 nM.

Q: With CC(=O)N[C@@H]1CCN(c2cc3c(N[C@H](C)c4cccc(C(F)F)c4F)nc(C)nc3cn2)C1 as the compound, how does the IC50 read?
A: The IC50 was 110 nM.

molecular target: T2, human SOS1 (hSOS1) with human K-RasG12C (hK-RasG12C) (Homo sapiens, UniProt Q07889); test: hK-RasG12C interaction assay with hSOS1 (Biochemical Assay 1, HTRF); assay type: binding; details: mean, read-out: K-RasG12C- SOS interaction assay IC50 - [mol/l] (mean)
T2 construct: His10-hSOS1; made in house; host or cells: E. coli BL21 (DE3)
T2 sequence (Q07889 with tags, fused parts or gaps): T1 sequence (Q07889 with tags, fused parts or gaps)
Method: Biochemical Assay 1: hK-RasG12C Interaction Assay with hSOS1
This assay quantifies the equilibrium interaction of human SOS1 (hSOS1) with human K-Ras^G12C (hK-RasG12C). Detection of the interaction is achieved by measuring homogenous time-resolved fluorescence resonance energy transfer (HTRF) from antiGST-Europium (FRET donor) bound to GST-K-RasG12C to anti-6His-XL665 bound to His-tagged hSOS1 (FRET-acceptor).
The assay buffer containes 5 mM HEPES pH 7.4 (Applichem), 150 mM NaCl (Sigma), 10 mM EDTA (Promega), 1 mM DTT (Thermofisher), 0.05% BSA Fraction V, pH 7.0, (ICN Biomedicals), 0.0025% (v/v) Igepal (Sigma) and 100 mM KF (FLUKA).
The expression and purification of N-terminal GST-tagged hK-RasG12C and N-terminal His-tagged hSOS1 is described below. Concentrations of protein batches used are optimized to be within the linear range of the HTRF signal. A Ras working solution is prepared in assay buffer containing typically 10 nM GST-hK-RasG12C and 2 nM antiGST-Eu(K) (Cisbio, France). A SOS1 working solution is prepared in assay buffer containing typically 20 nM His-hSOS1 and 10 nM anti-6His-XL665 (Cisbio, France). An inhibitor control solution is prepared in assay buffer containing 10 nM anti-6His-XL665 without hSOS1.
as §2
as §3, with “Ras” for “hRas”, “2” for “10”, “SOS1” for “hSOS1”, “60” for “30”, “620nm,” for “620 nm,”
as §4

Q: With CC(=O)N[C@H]1CCN(c2cc3c(N[C@H](C)c4cccc(C(F)F)c4F)nc(C)nc3cn2)C1 as the compound, how does the IC50 read?
A: Its IC50 is 79.8 nM.

Q: For CCOc1cc2c(N[C@H](C)c3cccc(C(F)F)c3F)nc(C)nc2cn1, which IC50 is on record?
A: The IC50 was 134 nM.

Q: For CC(=O)N[C@@H]1CCN(c2cc3c(N[C@H](C)c4cccc(C(F)F)c4F)nc(C)nc3cn2)C1, which IC50 is on record?
A: The IC50 was 77.3 nM.

molecular target: T3, hK-RasG12C activation by hSOS1 at high GTP concentration (Homo sapiens, UniProt Q07889); test: hK-RasG12C activation assay by hSOS1 at high GTP concentration (Biochemical Assay 2, HTRF); details: mean; assay 2, high concentration of 50 μM GTP; read-out: K-Ras activation by SOS high GTP (off-HTRF) IC50 - [mol/l] (mean)
T3 construct: His10-hSOS1; made in house; host or cells: E. coli BL21 (DE3)
T3 sequence (Q07889 with tags, fused parts or gaps): T1 sequence (Q07889 with tags, fused parts or gaps)
Description: Biochemical Assay 2: hK-RasG12C Activation Assay by hSOS1 at High GTP Concentration
This assay quantifies human SOS1-mediated nucleotide exchange of human K-Ras^G12C (hK-RasG12C) preloaded with a fluorescent […] and in presence of an excess of free GTP. Loaded hK-RasG12C generates a high HTRF-signal by energy transfer from antiGST-Terbium (FRET donor) bound to hK-Ras to the loaded fluorescent GDP analog (FRET-acceptor). hSOS1 activity exchanges the fluorescent GDP for non-fluorescent GTP and therefore leads to a reduction of the HTRF signal.
The fluorescent GDP-analog EDA-GDP-Dy647P1 (2′/3′-O-(2-Aminoethyl-carbamoyl)-guanosine-5′-diphosphate labelled with Dy647P1 (Dyomics GmbH, Germany)) is synthesized by Jena Biosciences GmbH (Germany) and supplied as a 1 mM aqueous solution.
The expression and purification of N-terminal GST-tagged human K-RasG12C and N-terminal His-tagged human SOS1 is described below. Concentrations of protein batches used are optimized to be within the linear range of the HTRF signal.
Preparation of GST-tagged hK-RasG12C loaded with fluorescent nucleotide is performed as follows: incubation of 11.5 μM hK-Ras^G12C with 5-fold excess GDP-Dy647 nucleotide (54 μM) in 500 μl NLS-buffer (RAS activation Kit Jena Bioscience, Kat. #PR-950) for 10 min at 37° C. Addition of 20 μl 1 M MgCl2 (Sigma) to final 40 mM and store on ice. Purification into buffer (10 mM HEPES pH 7.4 (Applichem), 150 mM NaCl (Sigma), 5 mM MgCl2 (Sigma)) by use of a PD-Minitrap desalting column (GE Healthcare). Concentration of 1 ml purified hK-Ras-GDP-Dy647 is approx. 4-5 μM.
as §1
A Ras working solution is prepared in assay buffer containing typically 80 nM loaded GST-hK-RasG12C-EDA-GDP-Dy647P1 and 2 nM antiGST-Tb (Cisbio, France). A hSOS1 working solution is prepared in assay buffer containing typically 8 nM His-hSOS1 and 100 μM GTP (Jena Bioscience, Germany). An inhibitor control solution is prepared in assay buffer containing the same concentration of hSOS1 without GTP.
Alternatively, the inhibitor control solution is prepared by supplementing the hSOS1 working solution with 20 μM of 6,7-dimethoxy-N-[(1R)-1-(1-naphthyl)ethyl]quinazolin-4-amine which is used to calibrate the assay.
as §2
as §3, with “Ras” for “hRas”, “2” for “10”, “20” for “30”
as §4

Q: With CC(=O)N[C@H]1CCN(c2cc3c(N[C@H](C)c4cccc(C(F)F)c4F)nc(C)nc3cn2)C1 as the compound, how does the IC50 read?
A: The IC50 was 197 nM.

Q: With CCOc1cc2c(N[C@H](C)c3cccc(C(F)F)c3F)nc(C)nc2cn1 as the compound, how does the IC50 read?
A: The IC50 was 851 nM.

Q: With CC(=O)N[C@@H]1CCN(c2cc3c(N[C@H](C)c4cccc(C(F)F)c4F)nc(C)nc3cn2)C1 as the compound, how does the IC50 read?
A: Its IC50 is 187 nM.

molecular target: T4, K-Ras-wt activation by SOS (Homo sapiens, UniProt Q07889); test: K-Ras-wt activation by SOS; assay type: biochemical; details: mean; K-Ras wild type; read-out: K-Ras-wt activation by SOS IC50 - [mol/l] (mean)
T4 sequence (Q07889 564-1049): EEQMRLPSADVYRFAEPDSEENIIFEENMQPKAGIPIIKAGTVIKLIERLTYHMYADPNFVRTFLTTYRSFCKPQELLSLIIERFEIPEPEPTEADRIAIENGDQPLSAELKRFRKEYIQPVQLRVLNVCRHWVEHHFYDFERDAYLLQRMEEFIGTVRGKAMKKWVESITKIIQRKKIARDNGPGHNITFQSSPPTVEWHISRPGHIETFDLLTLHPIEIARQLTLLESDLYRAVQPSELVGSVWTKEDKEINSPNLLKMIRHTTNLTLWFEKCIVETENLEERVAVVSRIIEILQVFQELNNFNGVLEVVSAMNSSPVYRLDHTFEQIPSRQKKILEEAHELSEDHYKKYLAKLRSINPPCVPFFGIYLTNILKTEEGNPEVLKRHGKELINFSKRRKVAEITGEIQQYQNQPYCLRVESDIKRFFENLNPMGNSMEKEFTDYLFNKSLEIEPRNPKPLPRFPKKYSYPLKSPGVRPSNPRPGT

Q: For CC(=O)N[C@H]1CCN(c2cc3c(N[C@H](C)c4cccc(C(F)F)c4F)nc(C)nc3cn2)C1, which IC50 is on record?
A: Its IC50 is 101 nM.

Q: Which IC50 does the source give for CCOc1cc2c(N[C@H](C)c3cccc(C(F)F)c3F)nc(C)nc2cn1 here?
A: The IC50 was 308 nM.

Q: For CC(=O)N[C@@H]1CCN(c2cc3c(N[C@H](C)c4cccc(C(F)F)c4F)nc(C)nc3cn2)C1, which IC50 is on record?
A: The IC50 was 92.3 nM.

test system: not given; test: not given; details: combination of BAY-293 with ARS-853; cited from earlier work

Q: For CNCc1ccccc1-c1csc(C(C)Nc2nc(C)nc3cc(OC)c(OC)cc23)c1 (stereo not shown) [BAY-293], which “anti-proliferative activity in vitro of the combination” value is on record?
A: The value was “Synergistic anti-proliferative activity”.
